Reference: paper PMC9541285, “Drug‐dependent inhibition of nucleotide hydrolysis in the heterodimeric ABC multidrug transporter PatAB from Streptococcus pneumoniae” (The Febs Journal, 2022)

What was measured:
PatAB (PatA^WTB^WT) [1] = molecular target: T1, PatAB (PatA^WTB^WT) (Streptococcus pneumoniae, UniProt A0ACD7PU88+Q8DN70); assay: ATPase inhibition, malachite green Pi assay; format: biochemical
T1 construct: gene ABC-NP; full length; N-terminal His6-PatA and C-terminal PatB-His10, tags kept; coexpressed in Lactococcus lactis NZ9000 ΔlmrA ΔlmrCD

PatAB (PatA^WTB^WT) [2] = molecular target: T2, PatAB (PatA^WTB^WT) (Streptococcus pneumoniae, UniProt A0ACD7PU88+Q8DN70, Q8DN70:Q521A); assay: biochemical
T2 construct: gene ABC-NP
Source text: ATPase inhibition, malachite green Pi assay on PatAB (PatA^WTB^WT)

PatAB (PatA^WTB^WT) [3] = molecular target: T1, PatAB (PatA^WTB^WT); assay: fluorescence anisotropy titration; format: binding
PatAB (PatA^WTB^WT) [4] = molecular target: T1, PatAB (PatA^WTB^WT); assay: competition with EMA photolabelling, in-gel fluorescence; format: binding; settings: 20-fold excess over EMA, membrane vesicles; also transported substrate (efflux from L. lactis cells)
[5] = system: Nc1nc2c(ncn2[C@@H]2O[C@H](COP(=O)(O)OP(=O)(O)OP(=O)(O)O)[C@@H](O)[C@H]2O)c(=O)[nH]1; assay: GTPase, malachite green Pi assay; format: biochemical, Streptococcus pneumoniae; settings: 10 mM MgCl2, pH 7.0, 30 °C, DDM, no drug

| Compound | IC50 (PatAB (PatA^WTB^WT) [1]) [µM] | IC50 (PatAB (PatA^WTB^WT) [2]) [µM] | Kd (PatAB (PatA^WTB^WT) [3]) [µM] | % reduction in EMA incorporation (PatAB (PatA^WTB^WT) [4]) [%] | Km [5] [µM] |
| --- | --- | --- | --- | --- | --- |
| CO[C@@H]1[C@@H](OC(=O)c2ccc(C)[nH]2)[C@@H](O)[C@H](Oc2ccc3c(O)c(NC(=O)c4c[nH]c(C(=O)Nc5c(O)c6ccc(O[C@@H]7OC(C)(C)[C@H](OC)[C@@H](OC(=O)c8ccc(C)[nH]8)[C@H]7O)c(C)c6oc5=O)c4C)c(=O)oc3c2C)OC1(C)C [Coumermycin A1] | 3.7 ± 0.4 | 3 ± 1 | – | – | – |
| CC[n+]1c(-c2ccccc2)c2cc(N)ccc2c2ccc(N)cc21 [Ethidium] | 7.1 ± 1.8 | 6.5 ± 1.7 | 0.103 | – | – |
| CO[C@@H]1[C@@H](OC(N)=O)[C@@H](O)[C@H](Oc2ccc3c(O)c(NC(=O)c4ccc(O)c(CC=C(C)C)c4)c(=O)oc3c2C)OC1(C)C [Novobiocin] | 4.6 ± 1.7 | 9.7 ± 2 | – | – | – |
| CC[N+](C)(CC)CCC[n+]1c(-c2ccccc2)c2cc(N)ccc2c2ccc(N)cc21 [Propidium] | 0.9 ± 0.6 | 0.9 ± 0.8 | – | – | – |
| COc1cccc2c1C(=O)c1c(O)c3c(c(O)c1C2=O)C[C@@](O)(C(C)=O)C[C@@H]3O[C@H]1C[C@H](N)[C@H](O)[C@H](C)O1 [daunomycin] | – | – | – | 75 | – |
| PatAB (PatA^WTB^WT) (Streptococcus pneumoniae) | – | – | – | – | 1100 ± 400 |
